Experimental data from the NIST ThermoML archive (doi:10.1021/acs.jced.5b00200).
“And” between values parts separate entries of the source, which are not always exact repeats. Equal values may be shown once. Numbers after ± are expanded uncertainties.

Experiment: wn = mass fraction of the nth substance listed
Conditions: 297.15 K, 100 kPa, Liquid, Alternating current cell with electrodes

CC(=O)[O-].[NH4+] [ammonium acetate] + O
electrical conductivity (w1 = 0.047): 0.0479 ± 0.004 S/m

CCC(C)O (stereo not given) [butan-2-ol] + O
electrical conductivity (w1 = 0.097): 0.0001 S/m

CC(=O)[O-].[K+] [potassium ethanoate] + O
electrical conductivity (w1 = 0.047): 0.0484 S/m and 0.0479 S/m

CC(C)O [propan-2-ol] + O
electrical conductivity (w1 = 0.097): 0.0001 S/m

CC(=O)[O-].[Na+] [sodium ethanoate] + O
electrical conductivity (w1 = 0.047): 0.0438 S/m and 0.0441 S/m
